# Experimental data: publication PMC7326275 (PLoS Pathogens, 2020)
# Marks after values point to notes of the source that are not given here.
# Assays:
# [1] = test system: H3N2 (E119V) virus (A/Fukui/45/2004); set-up: species or system ferret; AUC (total area under the viral shedding curve, raw data): unit not given beside the values; settings: in vivo
# [2] = test system: H1N1 (H275Y) virus (A/Mississippi/3/2001 clone); set-up: species or system ferret; AUC (total area under the viral shedding curve, raw data): unit not given beside the values; settings: in vivo
# H1N1pdm09 (H275Y) virus = test system: H1N1pdm09 (H275Y) virus; set-up: species or system Cynomolgus macaques (Macaca fascicularis); settings: cynomolgus monkey, in vivo
# [3] = test system: B (D197N) virus (B/Singapore/GP702/2015); set-up: species or system ferret; AUC (total area under the viral shedding curve, raw data): unit not given beside the values; settings: in vivo
# [4] = test system: H1N1pdm09 (H275Y) virus (A/Perth/261/2009); set-up: species or system ferret; AUC (total area under the viral shedding curve, raw data): unit not given beside the values; settings: in vivo
# [5] = test system: B (H273Y) virus (B/Perth/265/2015); set-up: species or system ferret; AUC (total area under the viral shedding curve, raw data): unit not given beside the values; settings: in vivo
smiles,measurement,setting,value
"CCOC(=O)C1=C[C@@H](OC(CC)CC)[C@H](NC(C)=O)[C@@H](N)C1 [OST, oseltamivir]",% Ferrets Infected,[1],62 (5/8) %
same,"AUC (total area under the viral shedding curve, raw data)",[1],6.0 ± 7.7
same,Activity loss clinical score,[1],0 (key: ≤20; 21–40; 2: 41–60; 3: >60)
same,Duration of Shedding,[1],3.8 ± 0.5 days
same,Nasal inflammation Cell score,[1],0 (key: <1X10^6; 1 to 2 x10^6; 2.1 to 4 x10^6; 3: >4x10^6)
same,Nasal inflammation Protein score,[1],0 (key: <500; 500–1000; 2: 1001–1500; 3: >1500)
same,Peak Viral Titre,[1],4.8 ± 0.4 Log10 TCID50/ml
same,Temperature clinical score,[1],0 (key: 0: <1; 1.1–1.5; 1.5–2.0; 3: >2.0)
same,Total Score (clinical signs),[1],0
same,Weight loss clinical score,[1],0
same,% Ferrets Infected,[2],100 (4/4) %
same,"AUC (total area under the viral shedding curve, raw data)",[2],18.2 ± 4.3
same,Activity loss clinical score,[2],3 (key: ≤20; 21–40; 2: 41–60; 3: >60)
same,Duration of Shedding,[2],5.2 ± 1.25 days
same,Nasal inflammation Cell score,[2],1 (key: <1X10^6; 1 to 2 x10^6; 2.1 to 4 x10^6; 3: >4x10^6)
same,Nasal inflammation Protein score,[2],0 (key: <500; 500–1000; 2: 1001–1500; 3: >1500)
same,Peak Viral Titre,[2],4.6± 0.5 Log10 TCID50/ml
same,Temperature clinical score,[2],2 (key: 0: <1; 1.1–1.5; 1.5–2.0; 3: >2.0)
same,Total Score (clinical signs),[2],7
same,Weight loss clinical score,[2],1 (key: 0: Weight increase or no change; 1–3; 2: 3–6; 3: >6)
same,"body weight or temperature, OST- vs placebo-treated animals",H1N1pdm09 (H275Y) virus,no significant differences
same,lower viral titre in tracheal lavages of OST dosed macaques on Day 3,H1N1pdm09 (H275Y) virus,not observed
same,"viral titres in nasal wash and tracheal lavages, OST vs placebo",H1N1pdm09 (H275Y) virus,not significantly different
same,% Ferrets Infected,[3],100 (4/4) %
same,"AUC (total area under the viral shedding curve, raw data)",[3],12.6 ± 2.3
same,Activity loss clinical score,[3],1 (key: ≤20; 21–40; 2: 41–60; 3: >60)
same,Duration of Shedding,[3],4.2 ± 1.0 days
same,Nasal inflammation Cell score,[3],0 (key: <1X10^6; 1 to 2 x10^6; 2.1 to 4 x10^6; 3: >4x10^6)
same,Nasal inflammation Protein score,[3],0 (key: <500; 500–1000; 2: 1001–1500; 3: >1500)
same,Peak Viral Titre,[3],4.5 ± 0.5 Log10 TCID50/ml
same,Temperature clinical score,[3],0 (key: 0: <1; 1.1–1.5; 1.5–2.0; 3: >2.0)
same,Total Score (clinical signs),[3],1
same,Weight loss clinical score,[3],0
same,viral titre on the single day with significant difference to placebo,[3],4.1 ± 0.4 Log10 TCID50/ml
same,% Ferrets Infected,[4],100 (4/4) %
same,"AUC (total area under the viral shedding curve, raw data)",[4],23.4 ± 4.4
same,Activity loss clinical score,[4],3 (key: ≤20; 21–40; 2: 41–60; 3: >60)
same,Duration of Shedding,[4],6.0 ± 1.4 days
same,Nasal inflammation Cell score,[4],3 (key: <1X10^6; 1 to 2 x10^6; 2.1 to 4 x10^6; 3: >4x10^6)
same,Nasal inflammation Protein score,[4],3 (key: <500; 500–1000; 2: 1001–1500; 3: >1500)
same,Peak Viral Titre,[4],5.2 ± 0.6 Log10 TCID50/ml
same,Temperature clinical score,[4],3 (key: 0: <1; 1.1–1.5; 1.5–2.0; 3: >2.0)
same,Total Score (clinical signs),[4],15
same,Weight loss clinical score,[4],3 (key: 0: Weight increase or no change; 1–3; 2: 3–6; 3: >6)
same,% Ferrets Infected,[5],100 (4/4) %
same,"AUC (total area under the viral shedding curve, raw data)",[5],13.5 ± 1.0
same,Activity loss clinical score,[5],1 (key: ≤20; 21–40; 2: 41–60; 3: >60)
same,Duration of Shedding,[5],5.2 ± 0.5 days
same,Nasal inflammation Cell score,[5],0 (key: <1X10^6; 1 to 2 x10^6; 2.1 to 4 x10^6; 3: >4x10^6)
same,Nasal inflammation Protein score,[5],0 (key: <500; 500–1000; 2: 1001–1500; 3: >1500)
same,Peak Viral Titre,[5],3.8 ± 0.6 Log10 TCID50/ml
same,Temperature clinical score,[5],0 (key: 0: <1; 1.1–1.5; 1.5–2.0; 3: >2.0)
same,Total Score (clinical signs),[5],1
same,Weight loss clinical score,[5],0
